Experimental data: patent US9498477B2, “Compositions and uses thereof to ameliorate pain” (Purdue Research Foundation, priority 2011, dated 2016)

Tests used:
[1] = tested on: Sprague Dawley rats models of spinal contusion injury; conditions: chronic SCI (5 months), single intraperitoneal dose 5 mg/kg body weight
Text: (§1) Spinal contusion injury. Sprague Dawley rats are subjected to a spinal contusion injury according to the procedure described by Basso et al., Graded histological and locomotor outcomes after spinal cord contusion using the NYU weight-drop device versus transaction, Exp Neurol. […] After 20 weeks, the animals are divided into untreated injury and treated injury groups, each of which is compared to an uninjured control.
Test compound treatment. […] The solution is sterilized through a filter and stored at 4° C. […] Untreated animals are administered saline vehicle intraperitoneally. Blood pressures are monitored using a CODA 2 system (Kent Scientific Corp.).
Mechanical allodynia evaluation. Sprague Dawley rats models of spinal contusion injury are divided into untreated injury and treated injury groups. The untreated injury groups are injected daily with vehicle as described herein. The treated injury groups are injected daily with test compound as described herein. Uninjured controls, untreated injury groups, and treated injury groups are evaluated for pain according to the procedure described by Choi et al., Behavioral signs of ongoing pain and cold allodynia in a rat model of neuropathic pain, Pain 59:369-376 (1994).

[2] = tested on: Sprague Dawley rats models of spinal contusion injury; conditions: chronic SCI (5 months), single intraperitoneal dose 5 mg/kg body weight; remark: listed apart in the source
Text: as §1
Test compound treatment. A solution of test compound, such as hydralazine hydrochloride (Sigma), is prepared with phosphate buffered saline. The solution is sterilized through a filter and stored at 4° C. […] Untreated animals are administered saline vehicle intraperitoneally. Blood pressures are monitored using a CODA 2 system (Kent Scientific Corp.).
Cold allodynia evaluation. Sprague Dawley rats models of spinal contusion injury are divided into untreated injury and treated injury groups. The untreated injury groups are injected daily with vehicle as described herein. The treated injury groups are injected daily with test compound as described herein. Uninjured controls, untreated injury groups, and treated injury groups are evaluated for pain according to the procedure described by Choi et al., Behavioral signs of ongoing pain and cold allodynia in a rat model of neuropathic pain, Pain 59:369-376 (1994).

**Q.** Which results are given for `NNc1nncc2ccccc12` [hydralazine]?
**A.** time to improvement of mechanical allodynia after the injection [1]: ≤ 2 days; duration of efficacy of the treatment, mechanical allodynia ([1]; FIG. 2 panel A): at least 10 days; time to improvement of cold-induced pain after the injection [2]: ≤ 2 h; duration of efficacy of the treatment, cold allodynia ([2]; FIG. 2 panel B): at least 10 days
